Experimental data reported in US7427625B2, “Substituted thiatriazaacenaphthylene-6-carbonitrile kinase inhibitors” (Janssen Pharmaceutica, N.V., priority 2006, dated 2008).

Assays:
[1] = biological target: T1, c-Src kinase (Homo sapiens, UniProt P12931); test: c-Src Kinase Assay; assay type: biochemical; settings: for inhibition at 2 µM: test concentration of 2 μM, read-out: c-Src percent inhibition
T1 construct: purchased Upstate Biotechnology, Lake Placid, N.Y
Experimental: A mixture of a 10× kinase buffer (80 mM MOPS at pH 7.0, 2 mM EDTA and 100 mM Magnesium Chloride), ATP (5 μM final from a 10 mM stock), a Cdc2 peptide KVEKIGEGTYVVYK (100 μM final from a 2.5 mM stock), γ-^33P ATP (10 μCi/μL stock) and water (20 μL/well) was added to each well of a Streptavidin Flashplate.
Test compound in 100% DMSO (0.5 μL) was added to the appropriate wells. Diluted c-Src kinase (human) (Upstate Biotechnology, Lake Placid, N.Y.) (diluted in a buffer consisting of 20 mM MOPS at pH 7.0, 1 mM EDTA, β-mercaptoethanol (0.1%), Brij-35 (0.01%), glycerol (5%) and 1 mg/mL bovine serum albumin) (2.5 μL) was added to the wells to initiate the reactions. The reaction plates were incubated at 30° C. for 40 min. The reaction was terminated by the addition of a 3% phosphoric acid solution (5 μL). The reaction product (10 μL) was spotted onto a P30 filtermat and washed for 5 minutes in phosphoric acid (75 mM). The wash sequence was repeated two more times, followed with one final wash in methanol. The plates were then dried, sealed and read on the TopCount scintillation counter after adding 30 μL scintillation fluid.
Percent inhibition was derived according to the procedure described in Example 2. For those compounds without an IC50, the percent inhibition results are shown at a test concentration of 2 μM.

[2] = biological target: T2, Aurora-A (Mus musculus, UniProt P97477); test: Aurora-A Screening Assay; assay type: biochemical, murine
T2 construct: followed by the full length protein encoding the murine Aurora-A; polyhistidine (N); made in house; host or cells: sf9 insect cells
T2 sequence (P97477 1-395): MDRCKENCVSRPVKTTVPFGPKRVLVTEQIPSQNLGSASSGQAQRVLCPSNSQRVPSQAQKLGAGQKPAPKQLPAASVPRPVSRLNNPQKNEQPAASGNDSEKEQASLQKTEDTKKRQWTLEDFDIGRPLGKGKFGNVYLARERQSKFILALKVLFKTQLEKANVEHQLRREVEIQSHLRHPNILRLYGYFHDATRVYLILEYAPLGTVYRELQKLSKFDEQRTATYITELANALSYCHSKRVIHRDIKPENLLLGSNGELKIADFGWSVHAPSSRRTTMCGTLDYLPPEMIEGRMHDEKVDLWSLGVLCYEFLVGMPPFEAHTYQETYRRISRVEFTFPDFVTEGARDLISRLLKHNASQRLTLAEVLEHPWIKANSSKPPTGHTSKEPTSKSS

[3] = system: A375 malignant melanoma; test: Cell Proliferation Inhibition Assay (14C-thymidine incorporation), A375; assay type: cell-based; settings: Homo sapiens, A-375
Experimental: (§1) The ability of a test compound to inhibit unregulated cell proliferation was determined by measuring incorporation of ^14C-labelled thymidine into newly synthesized DNA within cell lines derived from carcinomas originating from several tissues. Accordingly, the anti-proliferative effect of a compound on cells with a variety of phenotypes may be determined.
(§2) Carcinoma cell lines include those such as HeLa cervical adenocarcinoma (American Type Culture Collection (ATCC), Virginia, Cat. #CCL-2), A375 malignant melanoma (ATCC CRL-1619), SK-OV-3 ovarian adenocarcinoma (ATCC HTB-77), HCT-116 colon carcinoma (CCL-247), PC-3 prostate adenocarcinoma (ATCC CRL-1435), and MDA-MB-231 (Xenogen Corp.)
(§3) The carcinoma cells were trypsinized and counted. The cells (3000-8000 count) were added to each well of a 96-well CytoStar tissue culture treated scintillating microplate (Amersham #RPNQ0160) in complete medium (100 μL) and the plate was then incubated in complete medium for 24 hrs at 37° C. in an […] atmosphere containing 5% CO2. Test compound (1 μL) in 100% DMSO was added to the plate test-wells with DMSO only added to control-wells. The plate was incubated in complete medium for a second 24 hr period at 37° C. in an atmosphere containing 5% CO2.
(§4) An aliquot of a solution of Methyl ^14C-thymidine ([…]) (NEN #NEC568 or Amersham #CFA532) and complete medium (20 uL to provide 0.2 μCi/well) was then added to each well and the plate was incubated for a third 24 hr period at 37° C. in an atmosphere containing 5% CO2. The plate contents were then discarded, the plate was washed twice with PBS (200 μL) and then PBS (200 μL) was added to each well. The plate was sealed and the degree of methyl ^14C-thymidine incorporation was quantified on a Packard Top Count.

[4] = system: HCT-116 colon carcinoma; test: Cell Proliferation Inhibition Assay (14C-thymidine incorporation), HCT116; assay type: cell-based; settings: Homo sapiens
Experimental: as §1, §2, §3, §4

[5] = system: HeLa cervical adenocarcinoma; test: Cell Proliferation Inhibition Assay (14C-thymidine incorporation), HeLa; assay type: cell-based; settings: Homo sapiens
Experimental: as §1, §2, §3, §4

T1 sequence (P12931 whole entry): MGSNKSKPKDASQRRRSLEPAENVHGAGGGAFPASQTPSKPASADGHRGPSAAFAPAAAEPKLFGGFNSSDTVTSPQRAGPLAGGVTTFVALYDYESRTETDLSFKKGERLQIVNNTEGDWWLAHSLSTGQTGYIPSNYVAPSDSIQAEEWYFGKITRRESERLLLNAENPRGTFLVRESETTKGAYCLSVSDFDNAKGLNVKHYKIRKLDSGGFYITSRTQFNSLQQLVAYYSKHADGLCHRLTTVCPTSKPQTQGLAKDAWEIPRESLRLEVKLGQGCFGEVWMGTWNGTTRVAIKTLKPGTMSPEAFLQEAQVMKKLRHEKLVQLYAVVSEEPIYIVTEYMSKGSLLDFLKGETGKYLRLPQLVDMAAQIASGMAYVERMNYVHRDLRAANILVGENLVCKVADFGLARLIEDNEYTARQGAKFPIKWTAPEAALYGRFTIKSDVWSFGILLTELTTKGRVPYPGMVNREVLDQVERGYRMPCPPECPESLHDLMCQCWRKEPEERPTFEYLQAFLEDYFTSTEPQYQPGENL

| SMILES | IC50 [1] | IC50 [2] | inhibition at 2 µM [1] | also measured |
| --- | --- | --- | --- | --- |
| N#Cc1cnc2sc(C(=O)Nc3ccc(CN4CCOCC4)cc3)c3c2c1N(c1c(Cl)ccc2c1OCO2)C(=O)N3 [Cpd 4, 5-(5-chloro-benzo[1,3]dioxol-4-yl)-6-cyano-4-oxo-4,5-dihydro-3H-1-thia-3,5,8-triaza-acenaphthylene-2-carboxylic acid (4-morpholin-4-ylmethyl-phenyl)-amide] | 57.4 nM | 10.6 µM |  |  |
| COc1cc(N2C(=O)Nc3c(C(=O)Nc4ccc(CN5CCOCC5)cc4)sc4ncc(C#N)c2c34)c(Cl)cc1Cl [Cpd 5, 6-cyano-5-(2,4-dichloro-5-methoxy-phenyl)-4-oxo-4,5-dihydro-3H-1-thia-3,5,8-triaza-acenaphthylene-2-carboxylic acid (4-morpholin-4-ylmethyl-phenyl)-amide] | 355 nM | > 10 µM |  |  |
| COc1cc(N2C(=O)Nc3c(C(=O)Nc4ccc(CCN5CCOCC5)cc4)sc4ncc(C#N)c2c34)c(Cl)cc1Cl [Cpd 6, 6-cyano-5-(2,4-dichloro-5-methoxy-phenyl)-4-oxo-4,5-dihydro-3H-1-thia-3,5,8-triaza-acenaphthylene-2-carboxylic acid [4-(2-morpholin-4-yl-ethyl)-phenyl]-amide] | 368 nM | > 10 µM |  |  |
| CCOC(=O)c1sc2nc(N3CCOCC3)c(C#N)c3c2c1NC(=O)N3c1c(Cl)ccc2c1OCO2 [Cpd 7, 5-(5-chloro-benzo[1,3]dioxol-4-yl)-6-cyano-7-morpholin-4-yl-4-oxo-4,5-dihydro-3H-1-thia-3,5,8-triaza-acenaphthylene-2-carboxylic acid ethyl ester] |  | > 10 µM | -1% |  |
| N#Cc1c(N2CCOCC2)nc2sc(C(=O)Nc3ccc(CN4CCOCC4)cc3)c3c2c1N(c1c(Cl)ccc2c1OCO2)C(=O)N3 [Cpd 8, 5-(5-chloro-benzo[1,3]dioxol-4-yl)-6-cyano-7-morpholin-4-yl-4-oxo-4,5-dihydro-3H-1-thia-3,5,8-triaza-acenaphthylene-2-carboxylic acid (4-morpholin-4-ylmethyl-phenyl)-amide] |  | 6.47 µM | -21% |  |
| Cc1nc2sc(C(=O)Nc3ccc(CN4CCOCC4)cc3)c3c2c(c1C#N)N(c1c(Cl)ccc2c1OCO2)C(=O)N3 [Cpd 9, 5-(5-chloro-benzo[1,3]dioxol-4-yl)-6-cyano-7-methyl-4-oxo-4,5-dihydro-3H-1-thia-3,5,8-triaza-acenaphthylene-2-carboxylic acid (4-morpholin-4-ylmethyl-phenyl)-amide] |  | > 1 µM | 11% |  |
| CN1CCC(NC(=O)c2sc3ncc(C#N)c4c3c2NC(=O)N4c2c(Cl)ccc3c2OCO3)CC1 [Cpd 10, 5-(5-chloro-benzo[1,3]dioxol-4-yl)-6-cyano-4-oxo-4,5-dihydro-3H-1-thia-3,5,8-triaza-acenaphthylene-2-carboxylic acid (1-methyl-piperidin-4-yl)-amide] | 87 nM | 13.3 µM |  |  |
| N#Cc1cnc2sc(C(=O)Nc3ccc(CCN4CCCCC4)cc3)c3c2c1N(c1c(Cl)ccc2c1OCO2)C(=O)N3 [Cpd 11, 5-(5-chloro-benzo[1,3]dioxol-4-yl)-6-cyano-4-oxo-4,5-dihydro-3H-1-thia-3,5,8-triaza-acenaphthylene-2-carboxylic acid [4-(2-piperidin-1-yl-ethyl)-phenyl]-amide] | 71.2 nM | > 1 µM |  |  |
| CN1CCN(CCc2ccc(NC(=O)c3sc4ncc(C#N)c5c4c3NC(=O)N5c3c(Cl)ccc4c3OCO4)cc2)CC1 [Cpd 12, 5-(5-chloro-benzo[1,3]dioxol-4-yl)-6-cyano-4-oxo-4,5-dihydro-3H-1-thia-3,5,8-triaza-acenaphthylene-2-carboxylic acid {4-[2-(4-methyl-piperazin-1-yl)-ethyl]-phenyl}-amide] |  | ~10 µM | 91% |  |
| N#Cc1cnc2sc(C(=O)Nc3ccc(CCN4CCOCC4)cc3)c3c2c1N(c1c(Cl)ccc2c1OCO2)C(=O)N3 [Cpd 13, 5-(5-chloro-benzo[1,3]dioxol-4-yl)-6-cyano-4-oxo-4,5-dihydro-3H-1-thia-3,5,8-triaza-acenaphthylene-2-carboxylic acid [4-(2-morpholin-4-yl-ethyl)-phenyl]-amide] |  | 5.93 µM | 78% |  |
| CCOC(=O)c1sc2nc(O)c(C#N)c3c2c1NC(=O)N3c1ccncc1 [Cpd 14, 6-cyano-7-hydroxy-4-oxo-5-pyridin-4-yl-4,5-dihydro-3H-1-thia-3,5,8-triaza-acenaphthylene-2-carboxylic acid ethyl ester] |  | > 100 µM | 11% |  |
| CCOC(=O)c1sc2nc(-c3cc(F)ccc3Cl)c(C#N)c3c2c1NC(=O)N3c1ccncc1 [Cpd 15, 7-(2-chloro-5-fluoro-phenyl)-6-cyano-4-oxo-5-pyridin-4-yl-4,5-dihydro-3H-1-thia-3,5,8-triaza-acenaphthylene-2-carboxylic acid ethyl ester] |  | > 100 µM | -0.6% |  |
| COC1CCN(Cc2ccc(NC(=O)c3sc4ncc(C#N)c5c4c3NC(=O)N5c3c(Cl)ccc4c3OCO4)cc2)CC1 [Cpd 18, 5-(5-chloro-benzo[1,3]dioxol-4-yl)-6-cyano-4-oxo-4,5-dihydro-3H-1-thia-3,5,8-triaza-acenaphthylene-2-carboxylic acid [4-(4-methoxy-piperidin-1-ylmethyl)-phenyl]-amide] |  | > 1 µM |  |  |
| CC1CCN(Cc2ccc(NC(=O)c3sc4ncc(C#N)c5c4c3NC(=O)N5c3c(Cl)ccc4c3OCO4)cc2)CC1 [Cpd 19, 5-(5-chloro-benzo[1,3]dioxol-4-yl)-6-cyano-4-oxo-4,5-dihydro-3H-1-thia-3,5,8-triaza-acenaphthylene-2-carboxylic acid [4-(4-methyl-piperidin-1-ylmethyl)-phenyl]-amide] |  |  | 90% | inhibition at 1 µM ([2]; test concentration of 1 μM, read-out: Aurora-A percent inhibition): 9% |
| CN(C)C1CCN(C(=O)c2sc3ncc(C#N)c4c3c2NC(=O)N4c2c(Cl)ccc3c2OCO3)CC1 [Cpd 41, 5-(5-chloro-benzo[1,3]dioxol-4-yl)-2-(4-dimethylamino-piperidine-1-carbonyl)-4-oxo-4,5-dihydro-3H-1-thia-3,5,8-triaza-acenaphthylene-6-carbonitrile] |  | > 10 µM |  | IC50 [3]: > 100 µM; IC50 [4]: > 10 µM; IC50 [5]: > 100 µM |
| CN(C)C1CCN(Cc2ccc(NC(=O)c3sc4ncc(C#N)c5c4c3NC(=O)N5c3c(Cl)ccc4c3OCO4)cc2)CC1 [Cpd 42, 5-(5-chloro-benzo[1,3]dioxol-4-yl)-6-cyano-4-oxo-4,5-dihydro-3H-1-thia-3,5,8-triaza-acenaphthylene-2-carboxylic acid [4-(4-dimethylamino-piperidin-1-ylmethyl)-phenyl]-amide] |  | > 10 µM |  | IC50 [3]: > 100 µM; IC50 [4]: > 100 µM; IC50 [5]: > 100 µM |
